One assay deals with T1, human CA-IX (Homo sapiens, UniProt Q16790).
T1 construct: purchased Acro CA9-H82E3
As to the kind of experiment: Surface Plasmon Resonance (SPR) binding kinetics to recombinant human CA-IX (Biacore 8K, single-cycle kinetics, 1:1 binding model). An outline of the steps:
(§1)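 Using captured protein at 1200-1800 RU, we injected compound at 100-0.39 nM in 1% DMSO buffer, pH 7.4, 25° C, then corrected curves for reference and DMSO to obtain rate constants.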
Background: In SPR one partner is held on a chip, and binding of the other changes the refractive index at the surface.

Another assay concerns the target T2, human CA-XII (Homo sapiens, UniProt O43570).
T2 construct: purchased Creative BioMart CA12-261H
The assay is described as follows: Surface Plasmon Resonance (SPR) binding kinetics to recombinant human CA-XII (Biacore 8K, single-cycle kinetics, 1:1 binding model). Put shortly:
as §1

Where [1] appears, read: Chelated Metal: Lu-175; SPR, 25° C., pH 7.4; read-out: CAIX KD.
[2] abbreviates: Chelated Metal: Lu-175, 25° C., pH 7.4, read-out: CAXII KD.
Setting [3] is: read-out: CAIX KD; Chelated Metal: Lu-175; SPR, 25° C., pH 7.4.
The mark [4] stands for this setting: read-out: CAXII KD, Chelated Metal: Lu-175, 25° C., pH 7.4.

Like-named read-outs stand apart in the source and are kept apart here.

The values that follow come from patent publication US20260325685A1, “Radiopharmaceutical Compositions Targeting Carbonic Anhydrase IX and Uses Thereof” (RayzeBio, Inc., priority 2023, published 2026).

A word on the Kd: it is the free concentration of one partner at which half of the binding sites on the other are occupied at equilibrium, for simple one-to-one binding.

T2 sequence (O43570 25-354): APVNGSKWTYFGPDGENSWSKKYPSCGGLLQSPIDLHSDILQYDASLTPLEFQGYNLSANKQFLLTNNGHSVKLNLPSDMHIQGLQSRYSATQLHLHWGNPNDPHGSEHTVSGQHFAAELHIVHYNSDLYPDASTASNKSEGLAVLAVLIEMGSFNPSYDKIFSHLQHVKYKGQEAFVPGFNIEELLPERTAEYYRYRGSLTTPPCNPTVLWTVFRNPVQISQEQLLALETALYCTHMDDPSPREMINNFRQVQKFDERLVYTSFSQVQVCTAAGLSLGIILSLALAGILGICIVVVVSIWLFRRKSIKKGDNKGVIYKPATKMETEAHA

Turning to `NS(=O)(=O)c1nnc(NC(=O)C23CC(c4cn(CCNC(=O)[C@@H]5CN(C(=O)CN6CCN(CC(=O)O)CCN(CC(=O)O)CCN(CC(=O)O)CC6)CCN5C(=O)C[C@H](NC(=O)C[C@H](NC(=O)c5n[nH]c6ccc(O)cc56)C(=O)O)C(=O)O)nn4)(C2)C3)s1.[Lu+3]` [Compound 109.31], the dissociation constant Kd was below 1 nM at human CA-IX (setting [1]) and 2.5 to 10 nM on human CA-XII (setting [2]).
In the same order, the values of `NS(=O)(=O)c1nnc(NC(=O)C23CC(c4cn(CCNC(=O)[C@@H]5CN(C(=O)CN6CCN(CC(=O)O)CCN(CC(=O)O)CCN(CC(=O)O)CC6)CCN5C(=O)C[C@H](Nc5ncc(C(=O)NCc6ccc(C(F)F)cc6)cn5)C(=O)O)nn4)(C2)C3)s1.[Lu+3]` [Compound 111.6] are 2.5 to 10 nM and above 10 nM.
For the molecule `NS(=O)(=O)c1nnc(NC(=O)C23CCC(c4cn(CCNC(=O)[C@@H]5CN(C(=O)CN6CCN(CC(=O)O)CCN(CC(=O)O)CCN(CC(=O)O)CC6)CCN5C(=O)CC[C@H](NC(=O)C[C@H](NCc5ccccc5)C(=O)O)C(=O)O)nn4)(CC2)CC3)s1.[Lu+3]` [Compound 110], the Kd at human CA-IX (setting [3]) and on human CA-XII (setting [4]) was below 1 nM throughout.
`NS(=O)(=O)c1nnc(NC(=O)C23CCC(c4cn(CCNC(=O)[C@@H]5CN(C(=O)CN6CCN(CC(=O)O)CCN(CC(=O)O)CCN(CC(=O)O)CC6)CCN5C(=O)CC[C@H](NC(=O)C[C@H](NC(=O)c5cc(C(F)(F)F)[nH]n5)C(=O)O)C(=O)O)nn4)(CC2)CC3)s1.[Lu+3]` [Compound 109.47]: the dissociation constant Kd at human CA-IX (setting [1]) and at human CA-XII (setting [2]) was below 1 nM each time.
Turning to `CC(CCC(=O)N1CCC[C@@H]1C(=O)N[C@@H](CC(=O)N1CCN(C(=O)CN2CCN(CC(=O)O)CCN(CC(=O)O)CCN(CC(=O)O)CC2)C[C@@H]1C(=O)NCCn1cc(C23CC(C(=O)Nc4nnc(S(N)(=O)=O)s4)(C2)C3)nn1)C(=O)O)(c1ccc(O)cc1)c1ccc(O)cc1.[Lu+3]` [Compound 108.5], the Kd is 2.5 to 10 nM on human CA-IX (setting [1]) and above 10 nM at human CA-XII (setting [2]).
Take `CC(CCC(=O)N[C@@H](CC(=O)N[C@@H](CC(=O)N1CCN(C(=O)CN2CCN(CC(=O)O)CCN(CC(=O)O)CCN(CC(=O)O)CC2)C[C@H]1C(=O)NCCn1cc(-c2ccc(-c3cn4nc(S(N)(=O)=O)sc4n3)cc2)nn1)C(=O)O)C(=O)O)(c1ccc(O)cc1)c1ccc(O)cc1.[Lu+3]` [Compound 107.28]: the equilibrium dissociation constant (Kd) on human CA-IX (setting [1]) and at human CA-XII (setting [2]) was below 1 nM in each case.
As to `CC(CCCC(=O)N1CCOC[C@H]1C(=O)N[C@@H](CC(=O)NC1(C(=O)NCCn2cc(C34CC(C(=O)Nc5nnc(S(N)(=O)=O)s5)(C3)C4)nn2)CCN(C(=O)CN2CCN(CC(=O)O)CCN(CC(=O)O)CCN(CC(=O)O)CC2)CC1)C(=O)O)(c1ccc(O)cc1)c1ccc(O)cc1.[Lu+3]` [Compound 117.3], the Kd at human CA-IX (setting [1]) is below 1 nM; at human CA-XII (setting [2]), above 10 nM.
Take `CC(CCCC(=O)N1CCC(C(N)=O)(C(=O)NCC(=O)NC2(C(=O)N[C@@H](Cn3cc(C45CC(C(=O)Nc6nnc(S(N)(=O)=O)s6)(C4)C5)nn3)C(=O)O)CCN(C(=O)CN3CCN(CC(=O)O)CCN(CC(=O)O)CCN(CC(=O)O)CC3)CC2)CC1)(c1ccc(O)cc1)c1ccc(O)cc1.[Lu+3]` [Compound 134]: the equilibrium dissociation constant (Kd) on human CA-IX (setting [3]) is below 1 nM; at human CA-XII (setting [4]) it was above 10 nM.
Consider `NS(=O)(=O)c1nnc(CC(=O)C23CC(c4cn(CCNC(=O)[C@H]5COCCN5C(=O)CC[C@H](NC(=O)[C@H](CCCCNC(=O)CN5CCN(CC(=O)O)CCN(CC(=O)O)CCN(CC(=O)O)CC5)NC(=O)c5n[nH]c6ccccc56)C(=O)O)nn4)(C2)C3)s1.[Lu+3]` [Compound 118.4], for which the Kd was 1 to 2.5 nM on human CA-IX (setting [1]) and above 10 nM at human CA-XII (setting [2]).
In the same order, the values of `CC(CCC(=O)N[C@@H](CC(=O)N[C@@H](CCC(=O)N1CCN(C(=O)CN2CCN(CC(=O)O)CCN(CC(=O)O)CCN(CC(=O)O)CC2)C[C@@H]1Cn1cc(C23CC(C(=O)Nc4nnc(S(N)(=O)=O)s4)(C2)C3)nn1)C(=O)O)C(=O)O)(c1ccc(O)cc1)c1ccc(O)cc1.[Lu+3]` [Compound 107.14] are below 1 nM and below 1 nM.
In the same order, the values of `CCCCNc1c(F)c(S(N)(=O)=O)c(F)c(F)c1S(=O)(=O)CCOCc1cn(CCNC(=O)[C@H]2CN(C(=O)CN3CCN(CC(=O)O)CCN(CC(=O)O)CCN(CC(=O)O)CC3)CCN2C(=O)C[C@H](NC(=O)[C@@H]2COCCN2C(=O)CCC(C)(c2ccc(O)cc2)c2ccc(O)cc2)C(=O)O)nn1.[Lu+3]` [Compound 107.15] are 1 to 2.5 nM and above 10 nM.
In the same order, the values of `NS(=O)(=O)c1nnc(NC(=O)C23CC(c4cn(C[C@H]5CN(C(=O)CN6CCN(CC(=O)O)CCN(CC(=O)O)CCN(CC(=O)O)CC6)CCN5C(=O)[C@@H]5COCCN5C(=O)CCc5n[nH]c6ccccc56)nn4)(C2)C3)s1.[Lu+3]` [Compound 114.3] are 1 to 2.5 nM and above 10 nM.
As for `CC(CCCC(=O)N1CCC(C(N)=O)(C(=O)NCC(=O)NC2(C(=O)NCCn3cc(C45CC(C(=O)Nc6nnc(S(N)(=O)=O)s6)(C4)C5)nn3)CCN(C(=O)CN3CC4(C3)CN(C(=O)CN3CCN(CC(=O)O)CCN(CC(=O)O)CCN(CC(=O)O)CC3)C4)CC2)CC1)(c1ccc(O)cc1)c1ccc(O)cc1.[Lu+3]` [Compound 129.7], the Kd is below 1 nM on human CA-IX (setting [1]) and above 10 nM on human CA-XII (setting [2]).
For `CC(CCCC(=O)N1CCC(C(=O)O)(C(=O)NCC(=O)NC2(C(=O)NCCn3cc(C45CC(C(=O)Nc6nnc(S(N)(=O)=O)s6)(C4)C5)nn3)CCN(C(=O)CN3CCN(CC(=O)O)CCN(CC(=O)O)CCN(CC(=O)O)CC3)CC2)CC1)(c1ccc(O)cc1)c1ccc(O)cc1.[Lu+3]` (single isomer, unassigned) [Compound 117.4], the Kd on human CA-IX (setting [1]) is 1 to 2.5 nM; at human CA-XII (setting [2]), above 10 nM.
In the same order, the values of `CC(CCC(=O)N[C@@H](CC(=O)N[C@@H](CC(=O)N[C@@H](CCCCn1cc(C23CCC(C(=O)Nc4nnc(S(N)(=O)=O)s4)(CC2)C3)nn1)C(=O)NCC1(C(=O)O)CN(C(=O)CN2CCN(CC(=O)O)CCN(CC(=O)O)CCN(CC(=O)O)CC2)C1)C(=O)O)C(=O)O)(c1ccc(O)cc1)c1ccc(O)cc1.[Lu+3]` [Compound 100.19] are below 1 nM and below 1 nM.
`CC(CCC(=O)N[C@@H](CC(=O)N[C@@H](CC(=O)N[C@@H](CCCCn1cc(C23CC(C(=O)Nc4nnc(S(N)(=O)=O)s4)(C2)C3)nn1)C(=O)NCCOCCOCCNC(=O)CN1CCN(CC(=O)O)CCN(CC(=O)O)CCN(CC(=O)O)CC1)C(=O)O)C(=O)O)(c1ccc(O)cc1)c1ccc(O)cc1.[Lu+3]` [Compound 100]: the Kd at human CA-IX (setting [3]) is 1 to 2.5 nM; at human CA-XII (setting [4]), above 10 nM.
Turning to `NS(=O)(=O)c1nnc(NC(=O)C23CC(c4cn(C[C@H]5CN(C(=O)CN6CCN(CC(=O)O)CCN(CC(=O)O)CCN(CC(=O)O)CC6)CCN5c5nccc(NCCc6n[nH]c7ccccc67)n5)nn4)(C2)C3)s1.[Lu+3]` [Compound 115], the figures for the Kd at human CA-IX (setting [3]) and on human CA-XII (setting [4]) were 2.5 to 10 nM and above 10 nM, respectively.
Consider `NS(=O)(=O)c1nnc(NC(=O)CCCc2nnn(CCCC[C@H](NC(=O)C[C@H](Nc3cc(NC(=O)c4n[nH]c5ccc(O)cc45)cc(C(=O)O)c3)C(=O)O)C(=O)NCCOCCOCCNC(=O)CN3CCN(CC(=O)O)CCN(CC(=O)O)CCN(CC(=O)O)CC3)c2C(=O)O)s1.[Lu+3]` [Compound 102.8], for which the equilibrium dissociation constant (Kd) at human CA-IX (setting [1]) is below 1 nM; on human CA-XII (setting [2]), 1 to 2.5 nM.
As to `NS(=O)(=O)c1nnc(NC(=O)C23CC(c4cn(CCNC(=O)[C@@H]5CN(C(=O)CN6CCN(CC(=O)O)CCN(CC(=O)O)CCN(CC(=O)O)CC6)CCN5C(=O)CNC(=O)C5(C(=O)O)CCN(C(=O)c6cc(C(F)(F)F)n[nH]6)CC5)nn4)(C2)C3)s1.[Lu+3]` [Compound 112.11], the dissociation constant Kd at human CA-IX (setting [1]) was 2.5 to 10 nM; at human CA-XII (setting [2]) it was above 10 nM.
In the same order, the values of `NS(=O)(=O)c1nnc(NC(=O)C23CC(c4cn(CCNC(=O)[C@@H]5CN(C(=O)CN6CCN(CC(=O)O)CCN(CC(=O)O)CCN(CC(=O)O)CC6)CCN5C(=O)C[C@H](NC(=O)C[C@H](NC(=O)Cc5n[nH]c6ccc(O)cc56)C(=O)O)C(=O)O)nn4)(C2)C3)s1.[Lu+3]` [Compound 109.32] are below 1 nM and above 10 nM.
Regarding `CC(CCC(=O)N[C@@H](CC(=O)N[C@@H](CC(=O)N[C@@H](CCCCN1CCN(c2ccc(C(=O)Nc3nnc(S(N)(=O)=O)s3)cc2)CC1)C(=O)NCCOCCOCCNC(=O)CN1CCN(CC(=O)O)CCN(CC(=O)O)CCN(CC(=O)O)CC1)C(=O)O)C(=O)O)(c1ccc(O)cc1)c1ccc(O)cc1.[Lu+3]` [Compound 121], the equilibrium dissociation constant (Kd) on human CA-IX (setting [3]) was below 1 nM; at human CA-XII (setting [4]) it was above 10 nM.
As for `CC(CCCC(=O)N1CCC2(CC2)C[C@H]1C(=O)N[C@@H](CC(=O)N1CCN(C(=O)CN2CCN(CC(=O)O)CCN(CC(=O)O)CCN(CC(=O)O)CC2)C[C@@H]1C(=O)NCCn1cc(C23CC(C(=O)Nc4nnc(S(N)(=O)=O)s4)(C2)C3)nn1)C(=O)O)(c1ccc(O)cc1)c1ccc(O)cc1.[Lu+3]` [Compound 107.33], the dissociation constant (Kd) is below 1 nM on human CA-IX (setting [1]) and above 10 nM on human CA-XII (setting [2]).
`CC(CCCC(=O)N1CCC(C(N)=O)(C(=O)NCC(=O)N2CCN(C(=O)CCOCCOCCCC(=O)CN3CCN(CC(=O)O)CCN(CC(=O)O)CCN(CC(=O)O)CC3)C[C@H]2C(=O)NCCn2cc(C34CC(C(=O)Nc5nnc(S(N)(=O)=O)s5)(C3)C4)nn2)CC1)(c1ccc(O)cc1)c1ccc(O)cc1` [Compound 129.4]: the Kd at human CA-IX (Chelated Metal: None; SPR, 25° C., pH 7.4; read-out: CAIX KD) is below 1 nM; on human CA-XII (Chelated Metal: None, 25° C., pH 7.4, read-out: CAXII KD), above 10 nM. The “Ratio (CAXII/CAIX)” value on human CA-IX (KD ratio CAXII/CAIX; Chelated Metal: None) is given as “**** (50 < ****)”.
As to `CC(CC(=O)N[C@@H](CC(=O)N[C@@H](CC(=O)N[C@@H](CCCCn1cc(C23CCC(C(=O)Nc4nnc(S(N)(=O)=O)s4)(CC2)C3)nn1)C(=O)NCCOCCOCCNC(=O)CN1CCN(CC(=O)O)CCN(CC(=O)O)CCN(CC(=O)O)CC1)C(=O)O)C(=O)O)(c1ccc(O)cc1)c1ccc(O)cc1.[Lu+3]` [Compound 100.17], the Kd on human CA-IX (setting [1]) and on human CA-XII (setting [2]) was below 1 nM each time.
